From the NIST ThermoML archive (doi:10.1016/j.jct.2011.03.013)
Values joined by “and” are separate entries in the source; they are usually repeats but may differ in a detail not shown here. Equal values may be shown once. ± gives the expanded uncertainty stated by the source.

Conditions: Crystal; for vapor or sublimation pressure: Calculated from knudsen effusion weight loss; for molar enthalpy of sublimation: 298.15 K, Drop Calorimetry

N#Cc1cccc2ccccc12 [1-cyanonaphthalene]
Conditions	molar enthalpy of sublimation [kcal/mol]	vapor or sublimation pressure
–	21.1 ± 0.813	–
289.1 K	–	0.00012 ± 6e-06 kPa and 0.000125 ± 6e-06 kPa
291.12 K	–	0.000163 ± 8e-06 kPa and 0.000156 ± 8e-06 kPa and 0.000157 ± 8e-06 kPa
293.12 K	–	0.000208 ± 1e-05 kPa and 0.0002 ± 1e-05 kPa and 0.000196 ± 1e-05 kPa
295.12 K	–	0.000275 ± 1.4e-05 kPa and 0.000251 ± 1.3e-05 kPa and 0.000265 ± 1.3e-05 kPa
297.13 K	–	0.000324 ± 1.6e-05 kPa and 0.000319 ± 1.6e-05 kPa
299.13 K	–	0.000426 ± 2.1e-05 kPa and 0.000418 ± 2.1e-05 kPa and 0.000416 ± 2.1e-05 kPa
301.12 K	–	0.000535 ± 2.7e-05 kPa and 0.000532 ± 2.7e-05 kPa and 0.000527 ± 2.6e-05 kPa
303.3 K	–	0.000724 ± 3.6e-05 kPa and 0.00069 ± 3.5e-05 kPa and 0.000686 ± 3.4e-05 kPa
305.12 K	–	0.000843 ± 4.2e-05 kPa and 0.000849 ± 4.2e-05 kPa and 0.00084 ± 4.2e-05 kPa
307 K	–	0.001033 ± 0.0001 kPa and 0.001044 ± 0.00011 kPa and 0.001034 ± 0.0001 kPa

N#Cc1ccc2ccccc2c1 [2-naphthalenecarbonitrile]
Conditions	molar enthalpy of sublimation [kcal/mol]	vapor or sublimation pressure
–	21.7 ± 0.765	–
296.18 K	–	9e-05 ± 5e-06 kPa and 9.2e-05 ± 5e-06 kPa and 9.1e-05 ± 5e-06 kPa
298.11 K	–	0.000115 ± 6e-06 kPa and 0.000117 ± 6e-06 kPa and 0.000116 ± 6e-06 kPa
300.19 K	–	0.000159 ± 8e-06 kPa and 0.000153 ± 8e-06 kPa and 0.000154 ± 8e-06 kPa
302.18 K	–	0.000196 ± 1e-05 kPa and 0.000201 ± 1e-05 kPa and 0.000197 ± 1e-05 kPa
304.1 K	–	0.000245 ± 1.2e-05 kPa and 0.000244 ± 1.2e-05 kPa
306.18 K	–	0.000319 ± 1.6e-05 kPa and 0.000303 ± 1.5e-05 kPa and 0.000304 ± 1.5e-05 kPa
308.15 K	–	0.000391 ± 2e-05 kPa and 0.000388 ± 1.9e-05 kPa and 0.000396 ± 2e-05 kPa
310.09 K	–	0.000487 ± 2.4e-05 kPa and 0.000485 ± 2.4e-05 kPa and 0.000491 ± 2.5e-05 kPa
312.19 K	–	0.000636 ± 3.2e-05 kPa and 0.000617 ± 3.1e-05 kPa and 0.000618 ± 3.1e-05 kPa
314.16 K	–	0.000783 ± 3.9e-05 kPa and 0.000762 ± 3.8e-05 kPa and 0.000803 ± 4e-05 kPa
316.1 K	–	0.000948 ± 4.7e-05 kPa and 0.000947 ± 4.7e-05 kPa and 0.000994 ± 5e-05 kPa
